Among the test systems are M14 melanoma; OVCAR-3 ovarian; LOX IMVI melanoma; HCT-15 colon; HCC-2998 colon; SK-MEL-2 melanoma; HS 578T breast; MDA-MB-435; T-47D breast; UACC-62 melanoma.
Holding throughout (test): NCI tumour cell line growth inhibition, 48 h

Consider 17 compounds from PubChem BioAssay (NCI).

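Step 1: Grow cells in 96-well plates. Step 2: Expose to compound for 48 hours at 5 concentrations. Step 3: Interpolate endpoints linearly; if unreached, use highest concentration. TGI marks complete inhibition of growth.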 Where a SMILES comes first, the peptide text is derived from it. [ ]: non-standard residue; d: D form. The star is where a group is joined. ξ: configuration not given here. NMeF = CN[CH](Cc1ccccc1)C(=O)O; ξNMe2Val = CC(C)C(C(=O)*)N(C)C; NMeV = CN[CH](C(=O)O)C(C)C; OtBu = CC(C)(C)O*

`COC(=O)C(CCC1(C)OCCO1)=[N+]=[N-]`: the TGI in the assay on M14 melanoma, in the assay on OVCAR-3 ovarian, with LOX IMVI melanoma, in the assay with HCT-15 colon, in the assay with HCC-2998 colon and in the assay on SK-MEL-2 melanoma was over 100 µM in each case.
Turning to `CCSc1nc(N/N=C/c2cccs2)c2cnn(CO)c2n1`, the TGI in the assay on M14 melanoma stood at 22.9 µM; in the assay with OVCAR-3 ovarian it was 19 µM; with HS 578T breast, 15.3 µM; in the assay on HCT-15 colon it was 15.7 µM; in the assay with MDA-MB-435 it was 18.9 µM; in the assay on T-47D breast it was 18.5 µM. The TGI with UACC-62 melanoma amounted to 22.5 µM; in the assay with SK-MEL-2 melanoma, 24.4 µM.
As for `CCCCOC(=O)NC(=O)c1cn(CCCOC(=O)CCCCCCCCC(=O)OCCCn2cc(C(=O)NC(=O)OCCCC)c(=O)n(C)c2=O)c(=O)n(C)c1=O`, the TGI with M14 melanoma, with OVCAR-3 ovarian, in the assay with HCT-15 colon, in the assay on UACC-62 melanoma, in the assay with HCC-2998 colon and in the assay with SK-MEL-2 melanoma was over 100 µM each time.
In the case of `O=C1[C@@H]2C(c3ccccc3[N+](=O)[O-])=NO[C@@H]2C(=O)N1c1ccc(Cc2ccc(N3C(=O)[C@H]4C(c5ccccc5[N+](=O)[O-])=NO[C@H]4C3=O)cc2)cc1`, the TGI in the assay with M14 melanoma, in the assay with OVCAR-3 ovarian, with LOX IMVI melanoma, with HCT-15 colon, in the assay with UACC-62 melanoma and with HCC-2998 colon was over 100 µM in each case.
As for `CC(C)C(C(=O)N(C)C(Cc1ccccc1)C(=O)N(C)C(C(=O)N(C)C(C(=O)N1CCCC1C(=O)OC(C)(C)C)C(C)C)C(C)C)N(C)C` (configuration not stated) (ξNMe2Val-[NMeF][NMeV][NMeV]P-OtBu; configuration not given here), the TGI with M14 melanoma was 51.2 µM; in the assay with OVCAR-3 ovarian, over 100 µM; in the assay with LOX IMVI melanoma it was 55.5 µM; in the assay with HCT-15 colon, over 100 µM; in the assay with UACC-62 melanoma it was over 100 µM; in the assay on HCC-2998 colon, 53.3 µM.
For the compound `N#COc1ccc(Oc2ccc(OC#N)cc2)cc1`, the TGI in the assay with M14 melanoma was over 100 µM; with OVCAR-3 ovarian it was over 100 µM; in the assay on LOX IMVI melanoma, 33.9 µM; in the assay on HCT-15 colon, over 100 µM; in the assay with UACC-62 melanoma it was over 100 µM; in the assay with HCC-2998 colon it was over 100 µM. The compound also showed a TGI with SK-MEL-2 melanoma of over 100 µM.
Take `CC(=O)NC(C)(C)C1CCC(C)CC1` (configuration not stated): the TGI with M14 melanoma, in the assay on OVCAR-3 ovarian, with LOX IMVI melanoma, in the assay with HS 578T breast, with HCT-15 colon and in the assay on MDA-MB-435 was over 100 µM each time. Besides, the TGI in the assay with UACC-62 melanoma and in the assay on HCC-2998 colon was over 100 µM each time.
`NC1=Nc2ccccc2Sc2cccc(F)c21`: the TGI with M14 melanoma, in the assay with OVCAR-3 ovarian, with LOX IMVI melanoma, in the assay with HCT-15 colon, in the assay on MDA-MB-435 and with T-47D breast was over 100 µM each time. Moreover, the TGI with UACC-62 melanoma, in the assay on HCC-2998 colon and in the assay on SK-MEL-2 melanoma was over 100 µM in each case.
As to `COc1cc(S(=O)(=O)Nc2ccc(-c3csc(N4C(=O)CSC4c4ccccc4O)n3)cc2)ccc1Cl` (configuration not stated), the TGI with M14 melanoma, with OVCAR-3 ovarian, in the assay with LOX IMVI melanoma, in the assay with HCT-15 colon, in the assay on MDA-MB-435 and in the assay on UACC-62 melanoma was over 100 µM throughout. Besides, the TGI with HCC-2998 colon was 41.4 µM; in the assay on SK-MEL-2 melanoma, over 100 µM.
Turning to `CC(=O)OCC1OC(n2c(=S)n(-c3ccccc3)c(=O)c3cc(Br)ccc32)C(OC(C)=O)C1OC(C)=O` (configuration not stated), the TGI in the assay on M14 melanoma, with OVCAR-3 ovarian, in the assay with LOX IMVI melanoma, with HCT-15 colon, in the assay with UACC-62 melanoma and in the assay on HCC-2998 colon was over 100 µM throughout. Also, in the assay on SK-MEL-2 melanoma, the TGI is over 100 µM.
For the compound `CSc1nc(NCc2ccccc2)c2cnn(COCCO)c2n1`, the TGI in the assay on M14 melanoma was over 100 µM; in the assay on OVCAR-3 ovarian it was over 100 µM; with LOX IMVI melanoma, over 100 µM; in the assay on MDA-MB-435, 80.5 µM; with T-47D breast, over 100 µM; in the assay on UACC-62 melanoma, over 100 µM. In addition, the TGI in the assay with SK-MEL-2 melanoma was over 100 µM.
Take `CCCCCCCCCCCC[N+]12CC[N+](C)(CC1)CC2`: the TGI with M14 melanoma was over 100 µM; in the assay on OVCAR-3 ovarian, over 100 µM; in the assay on LOX IMVI melanoma, 43 µM; with UACC-62 melanoma, over 100 µM; with HCC-2998 colon, 23 µM; in the assay with SK-MEL-2 melanoma, over 100 µM.
On to `Brc1ccc(-c2cc3c(cc2C2SCCS2)OCO3)cc1`, for which the TGI with M14 melanoma was over 100 µM; with OVCAR-3 ovarian it was 75.9 µM; with LOX IMVI melanoma, over 100 µM; in the assay on HCT-15 colon, over 100 µM; in the assay on HCC-2998 colon, over 100 µM; with SK-MEL-2 melanoma, over 100 µM.
As to `CN(C)CCC[N+]1=Nc2cccc3cccc(c23)N1`, the TGI was 39 µM in the assay on M14 melanoma; over 100 µM in the assay on OVCAR-3 ovarian; over 100 µM with LOX IMVI melanoma; over 100 µM with HCT-15 colon; over 100 µM in the assay on UACC-62 melanoma; over 100 µM with HCC-2998 colon. Besides, the TGI with SK-MEL-2 melanoma is over 100 µM.
With `CCN(C(=O)N[C@H](C(=O)N[C@@H](CSC)C(=O)N[C@@H](C)C(=O)OC)C(C)C)c1ccccc1`, the TGI in the assay on M14 melanoma stood at 28.7 µM; in the assay on OVCAR-3 ovarian, 34.5 µM; with LOX IMVI melanoma it was 23.5 µM; in the assay on HCT-15 colon, 36.2 µM; in the assay on MDA-MB-435, 27.8 µM; in the assay on T-47D breast it was 76.3 µM. Besides, the TGI with UACC-62 melanoma is 27 µM; with HCC-2998 colon, 39.3 µM; in the assay on SK-MEL-2 melanoma, 37.8 µM.
In the case of `COc1ccc(C2=Nc3ccccc3N=C(SC)C2)cc1`, the TGI is over 100 µM with M14 melanoma; over 100 µM in the assay on OVCAR-3 ovarian; 34.6 µM with LOX IMVI melanoma; over 100 µM in the assay with HCT-15 colon; over 100 µM in the assay on UACC-62 melanoma; 74.4 µM in the assay with HCC-2998 colon. The compound also registered a TGI with SK-MEL-2 melanoma of over 100 µM.
For `Cc1ccnc(Nc2[nH]c(C(=O)c3ccc(Cl)cc3)c(N)c2C(=S)Nc2ccccc2)c1`, the TGI in the assay with M14 melanoma was 31.9 µM; in the assay on OVCAR-3 ovarian it was 93 µM; with LOX IMVI melanoma it was 28.3 µM; with HCT-15 colon, 34.2 µM; in the assay with MDA-MB-435, 35.3 µM; with T-47D breast, over 100 µM. Also, the results for the TGI in the assay on UACC-62 melanoma, in the assay with HCC-2998 colon and in the assay with SK-MEL-2 melanoma were 25.3 µM, 29.7 µM and 21.5 µM, respectively.
